Reference: the supplement of paper PMC10627819
≈ marks a conversion by molar mass, not a printed value.

What was measured:
[1] = test system: S. aureus DSM 20231; test: fitness (endpoint OD595 vs no drug) (fraction); higher = more growth
In short: (§1)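 Fitness compares growth at the stationary-phase transition with the robust mean of no-drug control wells, as a ratio of optical densities. The ratio is capped at 1. Wells of 384-well plates held 30 µl, or 55 µl for S. pneumoniae, inoculated at OD595 0.01. Readings at OD595 every 30 min for 14 h at 37 °C were corrected against the first reading.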

[2] = test system: B. subtilis 168; test: as above
In short: as §1

[3] = test system: S. pneumoniae D39V; test: as above
In short: as §1

[4] = test system: S. aureus Newman; test: as above
In short: as §1

[5] = test system: S. aureus DSM 20231; test: Bliss interaction score (quartile over a dose matrix) (fitness difference); higher = more antagonism (negative = synergy)
In short: (§2)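 OD595 was read at entry into stationary phase and expressed relative to the robust mean of the no-drug wells on the same plate, capped at 1. The resulting ratio is the fitness value. The Bliss score, observed fitness minus product-based expected fitness with single-drug fitness inferred from combinations, is summarised by quartiles over technical, biological and donor/recipient replicates.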

[6] = test system: B. subtilis 168; test: as above
In short: as §2

[7] = test system: S. pneumoniae D39V; test: as above
In short: as §2

[8] = test system: S. aureus Newman; test: as above
In short: as §2

[9] = test system: S. aureus DSM 20231
[10] = test system: B. subtilis 168
[11] = test system: S. pneumoniae D39V
[12] = test system: S. aureus Newman
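Wherever Bliss interaction score (quartile over a dose matrix) is given: first quartile when negative (synergy) and third quartile when positive (antagonism).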

CCN(CC)CCOC(=O)c1ccc(N)cc1 [Procaine] + CN1C2=CC=CC=C2N=C3C1=CC=CC3=O [Pyocyanin]
fitness
Conditions | first compound 85.5 µg/mL | first compound 171 µg/mL | first compound 342 µg/mL
[1], partner 1.25 µg/mL | 0.938 | ≥ 1 | ≥ 1
[1], partner 2.5 µg/mL | 0.854 | 0.986 | ≥ 1
[1], partner 5 µg/mL | 0.54 | 0.591 | 0.56
[2], partner 1.25 µg/mL | 0.871 | 0.869 | 0.848
[2], partner 2.5 µg/mL | 0.846 | 0.863 | 0.748
[2], partner 5 µg/mL | 0.683 | 0.669 | 0.647
[3], partner 0.325 µg/mL | ≥ 1 | 0.998 | 0.991
[3], partner 0.65 µg/mL | 0.975 | ≥ 1 | 0.966
[4], partner 1.25 µg/mL | 0.864 | 0.89 | 0.798
[4], partner 2.5 µg/mL | 0.782 | 0.748 | 0.776
[4], partner 5 µg/mL | – | 0.448 | –

[3], partner 1.3 µg/mL, one replicate
Conditions | fitness
first compound 85.5 µg/mL | 0.433
first compound 171 µg/mL | 0.585
first compound 342 µg/mL | 0.524

Conditions | Bliss interaction score
[5] | -0.0817
[6] | -0.0724
[7] | -0.0685
[8] | 0.148

CCN(CC)CCOC(=O)c1ccc(N)cc1 [Procaine] + CN(N=O)C(=O)N[C@@H](C=O)[C@@H](O)[C@H](O)[C@H](O)CO [Streptozotocin]
fitness
Conditions | first compound 85.5 µg/mL | first compound 171 µg/mL | first compound 342 µg/mL
[1], partner 0.15 µg/mL | 0.822 | 0.848 | 0.851
[1], partner 0.3 µg/mL | 0.724 | 0.799 | 0.786
[1], partner 0.6 µg/mL | 0.593 | 0.682 | 0.651
[3], partner 1.2 µg/mL | 0.977 | 0.994 | 0.963
[3], partner 2.4 µg/mL | 0.994 | ≥ 1 | 0.945
[3], partner 4.8 µg/mL | 0.993 | ≥ 1 | 0.961
[4], partner 0.15 µg/mL | 0.894 | 0.85 | 0.904
[4], partner 0.3 µg/mL | 0.809 | 0.798 | 0.799
[4], partner 0.6 µg/mL | 0.624 | 0.602 | 0.617

fitness, [2], one replicate
Conditions | first compound 85.5 µg/mL | first compound 171 µg/mL | first compound 342 µg/mL
partner 0.15 µg/mL | 0.98 | 0.945 | 0.891
partner 0.3 µg/mL | 0.948 | 0.988 | 0.954
partner 0.6 µg/mL | 0.901 | 0.944 | 0.881

Conditions | Bliss interaction score
[5] | -0.076
[6] | 0.0445
[7] | 0.0574
[8] | 0.0489

CCN(CC)CCOC(=O)c1ccc(N)cc1 [Procaine] + CN[C@@H]1[C@H](O)[C@H](NC)[C@H]2O[C@@]3(O)C(=O)C[C@@H](C)O[C@H]3O[C@@H]2[C@H]1O [Spectinomycin]
fitness
Conditions | first compound 85.5 µg/mL | first compound 171 µg/mL | first compound 342 µg/mL
[1], partner 4 µg/mL | 0.959 | 0.931 | 0.914
[1], partner 8 µg/mL | 0.948 | 0.911 | 0.928
[1], partner 16 µg/mL | 0.82 | 0.848 | 0.868
[2], partner 2 µg/mL | 0.972 | 0.926 | 0.923
[2], partner 4 µg/mL | 0.938 | 0.963 | 0.93
[2], partner 8 µg/mL | 0.895 | 0.84 | 0.824
[3], partner 4 µg/mL | ≥ 1 | 0.973 | 0.914
[3], partner 8 µg/mL | 0.964 | 0.955 | 0.929
[4], partner 4 µg/mL | 0.886 | 0.891 | 0.89
[4], partner 8 µg/mL | ≥ 1 | 0.968 | 0.962
[4], partner 16 µg/mL | 0.896 | 0.905 | 0.88

fitness, one replicate
Conditions | first compound 85.5 µg/mL | first compound 171 µg/mL | first compound 342 µg/mL
[1], partner 32 µg/mL | 0.744 | 0.724 | 0.813
[1], partner 64 µg/mL | 0.0918 | 0.0696 | 0.107
[3], partner 16 µg/mL | 0.866 | 0.857 | 0.849
[4], partner 32 µg/mL | 0.678 | 0.652 | 0.629
[4], partner 64 µg/mL | 0.139 | 0.132 | 0.147

Conditions | Bliss interaction score
[5] | 0.0496
[6] | -0.0468
[7] | 0.0382
[8] | 0.0891

CCN(CC)CCOC(=O)c1ccc(N)cc1 [Procaine] + COc1ccc(C[C@H](N)C(=O)N[C@H]2[C@@H](O)[C@H](n3cnc4c(N(C)C)ncnc43)O[C@@H]2CO)cc1 [Puromycin]
fitness
Conditions | first compound 85.5 µg/mL | first compound 171 µg/mL | first compound 342 µg/mL
[1], partner 0.39 µg/mL | 0.996 | ≥ 1 | 0.916
[1], partner 0.78 µg/mL | ≥ 1 | ≥ 1 | ≥ 1
[1], partner 1.56 µg/mL | 0.994 | ≥ 1 | ≥ 1
[2], partner 0.39 µg/mL | 0.931 | 0.964 | 0.899
[2], partner 0.78 µg/mL | 0.935 | 0.913 | 0.896
[2], partner 1.56 µg/mL | 0.934 | 0.967 | 0.958
[3], partner 1 µg/mL | 0.974 | 0.951 | 0.958
[3], partner 2 µg/mL | 0.948 | 0.966 | 0.955
[3], partner 4 µg/mL | 0.789 | 0.831 | 0.814
[4], partner 0.39 µg/mL | ≥ 1 | ≥ 1 | ≥ 1
[4], partner 0.78 µg/mL | ≥ 1 | 0.977 | 0.936
[4], partner 1.56 µg/mL | ≥ 1 | ≥ 1 | ≥ 1

fitness, [1], one replicate
Conditions | first compound 85.5 µg/mL | first compound 171 µg/mL | first compound 342 µg/mL
partner 3.12 µg/mL | 0.86 | 0.879 | ≥ 1
partner 6.24 µg/mL | 0.592 | 0.646 | 0.618

Conditions | Bliss interaction score
[5] | 0.047
[6] | 0.0785
[7] | 0.0736
[8] | 0.063

CCN(CC)CCOC(=O)c1ccc(N)cc1 [Procaine] + Cc1cc(NS(=O)(=O)c2ccc(N)cc2)no1 [Sulfamethoxazol]
fitness
Conditions | [1] | [2] | [3] | [4]
first compound 85.5 µg/mL, partner 1 µg/mL | 0.976 | 0.909 | 0.991 | 0.999
first compound 85.5 µg/mL, partner 2 µg/mL | 0.979 | 0.88 | 0.982 | 0.984
first compound 85.5 µg/mL, partner 4 µg/mL | 0.999 | 0.905 | 0.924 | 0.959
first compound 171 µg/mL, partner 1 µg/mL | 0.992 | 0.865 | 0.979 | 0.99
first compound 171 µg/mL, partner 2 µg/mL | ≥ 1 | 0.836 | ≥ 1 | 0.981
first compound 171 µg/mL, partner 4 µg/mL | ≥ 1 | 0.936 | 0.923 | 0.937
first compound 342 µg/mL, partner 1 µg/mL | 0.944 | 0.88 | 0.979 | –
first compound 342 µg/mL, partner 2 µg/mL | ≥ 1 | 0.78 | 0.974 | –
first compound 342 µg/mL, partner 4 µg/mL | ≥ 1 | 0.918 | 0.908 | –

fitness, one replicate
Conditions | first compound 85.5 µg/mL | first compound 171 µg/mL | first compound 342 µg/mL
[2], partner 0.5 µg/mL | 0.971 | 0.908 | 0.963
[4], partner 8 µg/mL | 0.88 | 0.892 | 0.934

Conditions | Bliss interaction score
[5] | 0.0626
[6] | -0.0492
[7] | 0.0407
[8] | 0.0323

Cn1nnc(-c2ccc(-c3ccc(N4C[C@H](CO)OC4=O)cc3F)cn2)n1 [Tedizolid]
Conditions | MIC [µg/mL]
[9] | 0.3 (≈ 0.81 µM)
[10] | 0.5 (≈ 1.35 µM)
[11] | 0.125 (≈ 0.338 µM)
[12] | 0.3 (≈ 0.81 µM)

fitness
Conditions | 0.0312 µg/mL | 0.0625 µg/mL | 0.125 µg/mL | 0.25 µg/mL | 0.5 µg/mL
[1] | – | 0.923 | 0.809 | 0.229 | –
[2] | 0.943 | 0.901 | 0.643 | – | –
[3] | – | – | 0.719 | 0.416 | 0.168
[4] | – | 0.936 | 0.859 | 0.434 | –
